Measurements: patent publication US9963464B2, “Macrocyclic compounds” (Bayer Pharma Aktiengesellschaft, priority 2014, dated 2018)

Legend:
[1] = biological target: T1, CDK2/CycE (Homo sapiens, UniProt P24941); test: CDK2/CycE kinase assay (TR-FRET, Method 2a); format: biochemical; settings: 10 μM ATP
T1 construct: GST; purchased ProQinase GmbH (Freiburg, Germany); host or cells: insect cells (Sf9)
Description: 2a. CDK2/CycE Kinase Assay:
CDK2/CycE-inhibitory activity of compounds of the present invention was quantified employing the CDK2/CycE TR-FRET assay as described in the following paragraphs:
Recombinant fusion proteins of GST and human CDK2 and of GST and human CycE, expressed in insect cells (Sf9) and purified by Glutathion-Sepharose affinity chromatography, were purchased from ProQinase GmbH (Freiburg, Germany). As substrate for the kinase reaction biotinylated peptide biotin-Ttds-YISPLKSPYKISEG (C-terminus in amid form) was used which can be purchased e.g. from the company JERINI Peptide Technologies (Berlin, Germany).
(§1) For the assay 50 nl of a 100 fold concentrated solution of the test compound in DMSO was pipetted into a black low volume 384 well microtiter plate (Greiner Bio-One, Frickenhausen, Germany), 2 μl of a solution of CDK2/CycE in aqueous assay buffer [50 mM Tris/HCl pH 8.0, 10 mM MgCl2, 1.0 mM dithiothreitol, 0.1 mM sodium ortho-vanadate, 0.01% (v/v) Nonidet-P40 (Sigma)] were added and the mixture was incubated for 15 min at 22° C. to allow pre-binding of the test compounds to the enzyme before the start of the kinase reaction. […] The concentration of CDK2/CycE was adjusted depending of the activity of the enzyme lot and was chosen appropriate to have the assay in the linear range, typical concentrations were in the range of 130 ng/mL. The reaction was stopped by the addition of 5 μl of a solution of TR-FRET detection reagents (0.2 μM streptavidine-XL665 [Cisbio Bioassays, Codolet, France] and 1 nM anti-RB(pSer807/pSer811)-antibody from BD Pharmingen [#558389] and 1.2 nM LANCE EU-W1024 labeled anti-mouse IgG antibody [Perkin-Elmer, product no. AD0077]) in an aqueous EDTA-solution (100 mM EDTA, 0.2% (w/v) bovine serum albumin in 100 mM HEPES pH 7.5).
(§2) The resulting mixture was incubated 1 h at 22° C. to allow the formation of complex between the phosphorylated biotinylated peptide and the detection reagents. Subsequently the amount of phosphorylated substrate was evaluated by measurement of the resonance energy transfer from the Eu-chelate to the streptavidine-XL. Therefore, the fluorescence emissions at 620 nm and 665 nm after excitation at 350 nm was measured in a TR-FRET reader, e.g. a Rubystar (BMG Labtechnologies, Offenburg, Germany) or a Viewlux (Perkin-Elmer). The ratio of the emissions at 665 nm and at […] was taken as the measure for the amount of phosphorylated substrate. The data were normalised (enzyme reaction without inhibitor=0% inhibition, all other assay components but no enzyme=100% inhibition).

[2] = biological target: T2, CDK9/CycT1 (Homo sapiens, UniProt P50750); test: CDK9/CycT1 kinase assay (TR-FRET, Method 1a); format: biochemical; settings: for IC50: Method 1a, 10 μM ATP; for Selectivity CDK9 over CDK2: IC50 (CDK2)/IC50 (CDK9): Methods 1a and 2a, minimal values where CDK9 IC50 is at the assay limit
T2 construct: Recombinant full-length His-tagged human CDK9 and CycT1; His; purchased Invitrogen PV4131; host or cells: insect cells
T2 sequence (P50750 whole entry): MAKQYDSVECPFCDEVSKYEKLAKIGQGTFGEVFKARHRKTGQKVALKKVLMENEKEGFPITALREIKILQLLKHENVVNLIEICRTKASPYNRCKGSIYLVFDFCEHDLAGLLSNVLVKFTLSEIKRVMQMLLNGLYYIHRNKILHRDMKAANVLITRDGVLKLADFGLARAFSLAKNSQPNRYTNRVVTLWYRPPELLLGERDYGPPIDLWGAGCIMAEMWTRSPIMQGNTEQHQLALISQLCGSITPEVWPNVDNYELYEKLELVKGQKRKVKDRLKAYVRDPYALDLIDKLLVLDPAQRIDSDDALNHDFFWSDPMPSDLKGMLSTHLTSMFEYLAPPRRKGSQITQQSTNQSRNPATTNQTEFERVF
T2 sequence (O60563 whole entry partner): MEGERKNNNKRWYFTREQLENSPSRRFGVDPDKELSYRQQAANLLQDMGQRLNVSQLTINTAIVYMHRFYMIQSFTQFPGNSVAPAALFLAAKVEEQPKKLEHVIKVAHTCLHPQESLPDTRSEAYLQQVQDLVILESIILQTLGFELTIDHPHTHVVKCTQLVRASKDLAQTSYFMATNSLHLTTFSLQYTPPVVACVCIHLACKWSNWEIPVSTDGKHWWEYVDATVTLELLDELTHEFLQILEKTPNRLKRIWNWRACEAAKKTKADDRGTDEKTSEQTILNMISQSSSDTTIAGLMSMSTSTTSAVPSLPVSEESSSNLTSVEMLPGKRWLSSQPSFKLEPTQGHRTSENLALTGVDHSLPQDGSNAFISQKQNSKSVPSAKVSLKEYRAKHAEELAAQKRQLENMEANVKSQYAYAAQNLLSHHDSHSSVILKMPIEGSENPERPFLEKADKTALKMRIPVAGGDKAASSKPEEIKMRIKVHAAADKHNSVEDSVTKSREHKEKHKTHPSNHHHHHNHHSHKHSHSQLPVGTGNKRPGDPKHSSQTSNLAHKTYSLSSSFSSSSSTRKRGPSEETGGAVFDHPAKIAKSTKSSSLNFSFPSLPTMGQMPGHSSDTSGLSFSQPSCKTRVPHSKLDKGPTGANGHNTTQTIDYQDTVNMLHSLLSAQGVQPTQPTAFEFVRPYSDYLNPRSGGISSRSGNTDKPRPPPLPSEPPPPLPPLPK
Description: 1a. CDK9/CycT1 Kinase Assay:
CDK9/CycT1-inhibitory activity of compounds of the present invention was quantified employing the CDK9/CycT1 TR-FRET assay as described in the following paragraphs:
as §1, with “Recombinant full-length His-tagged human CDK9 and CycT1, expressed in insect cells and purified by Ni-NTA affinity chromatography, were purchased from Invitrogen (Cat. No PV4131). As substrate for the kinase reaction biotinylated peptide biotin-Ttds-YISPLKSPYKISEG (C-terminus in amid form) was used which can be purchased e.g. from the company JERINI Peptide Technologies (Berlin, Germany). For” for “For”, “CDK9/CycT1” for “CDK2/CycE”, “1 μg/mL.” for “130 ng/mL.”
as §2, with “HTRF” for “TR-FRET”

IC50 [1] [nM]	IC50 [2] [nM]	Selectivity CDK9 over CDK2: IC50 (CDK2)/IC50 (CDK9) [2]	Structure (SMILES)
19.3	5.3	3.7	CS(=O)(=O)N=S(C)(=O)Cc1cc2nc(c1)OCCCOc1cc(F)ccc1-c1cc(ncc1F)N2 (racemic) [Example 22, (rac)-N-[{[15,19-difluoro-3,4-dihydro-2H,11H-10,6-(azeno)-12,16-(metheno)-1,5,11,13-benzodioxadiazacyclooctadecin-8-yl]methyl}(methyl)oxido-λ^6-sulfanylidene]methanesulfonamide]
11.7	5.3	2.2	CCOC(=O)N=S(C)(=O)Cc1cc2nc(c1)OCCCOc1cc(F)ccc1-c1cc(ncc1F)N2 (racemic) [Example 20, (rac)-ethyl [{[15,19-difluoro-3,4-dihydro-2H,11H-10,6-(azeno)-12,16-(metheno)-1,5,11,13-benzodioxadiazacyclooctadecin-8-yl]methyl}(methyl)oxido-λ^6-sulfanylidene]carbamate]
10	5.9	1.7	NCCS(=O)(=O)Cc1cc2nc(c1)OCCCOc1cc(F)ccc1-c1cc(ncc1F)N2 [Example 26, 2-({[15,19-difluoro-3,4-dihydro-2H,11H-10,6-(azeno)-12,16-(metheno)-1,5,11,13-benzodioxadiazacyclooctadecin-8-yl]methyl}sulfonyl)ethanamine]
2.4	7.3	0.3	CS(=N)(=O)Cc1cc2nc(c1)OCCCOc1cc(F)ccc1-c1cc(ncc1F)N2 (single isomer, unassigned; enantiomer 2) [Example 7, 15,19-Difluoro-8-[(S-methylsulfonimidoyl)methyl]-3,4-dihydro-2H,11H-10,6-(azeno)-12,16-(metheno)-1,5,11,13-benzodioxadiazacyclooctadecine; Enantiomer 2]
2.7	3	0.9	CS(=N)(=O)Cc1cc2nc(c1)OCCCOc1cc(F)ccc1-c1cc(ncc1F)N2 (single isomer, unassigned; enantiomer 1) [Example 6, 15,19-Difluoro-8-[(S-methylsulfonimidoyl)methyl]-3,4-dihydro-2H,11H-10,6-(azeno)-12,16-(metheno)-1,5,11,13-benzodioxadiazacyclooctadecine; Enantiomer 1]

More lines, now with the values behind:

Structure (SMILES)	IC50 [1] [nM]	IC50 [2] [nM]	Selectivity CDK9 over CDK2: IC50 (CDK2)/IC50 (CDK9) [2]
CS(=N)(=O)Cc1cc2nc(c1)OCCOc1cc(F)ccc1-c1cc(ncc1F)N2 (racemic) [Example 11, (rac)-14,18-difluoro-7-[(S-methylsulfonimidoyl)methyl]-2,3-dihydro-10H-9,5-(azeno)-11,15-(metheno)-1,4,10,12-benzodioxadiazacycloheptadecine]	180	2.5	72.6
CS(=N)(=O)Cc1cc2cc(c1)OCCCCOc1cc(F)ccc1-c1nc(ncc1F)N2 (racemic) [Example 1, (rac)-16,20-Difluoro-9-[(S-methylsulfonimidoyl)methyl]-2,3,4,5-tetrahydro-12H-13,17-(azeno)-11,7-(metheno)-1,6,12,14-benzodioxadiazacyclononadecine]	21.2	2.9	7.4
CSCc1cc2nc(c1)OCCCOc1cc(F)ccc1-c1cc(ncc1F)N2 [Example 3, 15,19-Difluoro-8-[(methylsulfanyl)methyl]-3,4-dihydro-2H,11H-10,6-(azeno)-12,16-(metheno)-1,5,11,13-benzodioxadiazacyclooctadecine]	41	6.8	6.0
CSCc1cc2nc(c1)OCCCCOc1cc(F)ccc1-c1cc(ncc1F)N2 [Example 12, 16,20-Difluoro-9-[(methylsulfanyl)methyl]-2,3,4,5-tetrahydro-12H-11,7-(azeno)-13,17-(metheno)-1,6,12,14-benzodioxadiazacyclononadecine]	114	16.5	6.9
